In the NIST ThermoML archive (doi:10.1021/je0302147):
± gives the expanded uncertainty stated by the source.

Columns and labels:
[1] = 298.15 K, 101.33 kPa, Liquid; for speed of sound: Sing-around technique in a fixed-path interferometer
[2] = refractive index (Na D-line) (dimensionless); conditions: 298.15 K, 101.33 kPa, Liquid

CCO [ethanol] gave a speed of sound [1] of 1143 ± 2 m/s, a mass density ([1]; Vibrating tube method) of 785.22 kg/m3 and a refractive index [2] of 1.3592.
Work on CCOC(C)(C)CC [1,1-dimethylpropyl ethyl ether] yielded a speed of sound [1] of 1096 ± 2 m/s, a mass density ([1]; Vibrating tube method) of 760.5 kg/m3 and a refractive index [2] of 1.38857.
CCCCCCCC[n+]1ccn(C)c1.[Cl-] [1-methyl-3-octylimidazolium chloride] showed a mass density [1] of 1007 ± 1.6 kg/m3, a speed of sound [1] of 1382 ± 4 m/s and a refractive index ([2]; Standard Abbe refractometry) of 1.5058 ± 0.00069.
